Test results from patent US20250295656A1, “COMBINATION OF LURBINECTEDIN AND IMMUNE CHECKPOINT INHIBITORS” (priority 2020, published 2025).

Assays:
[1] = tested on: human osteosarcoma U2OS cells; assay: Loss of viability by nuclear morphology (Hoechst 33342), automated microscopy; type: cell-based; details: lurbinectedin 1 nM to 1 μM, 4, 8, 16 and 32 hours, comparable to MTX 1 and 3 μM
Experimental: (§1) (a) Human osteosarcoma U2OS (a), human breast cancer HCC70 (b) human colon cancer HT29 cells (c) and murine methylcholantrene-induced fibrosarcoma MCA205 cells (d) were treated with lurbinectedin (Lurbi, 1 nM, 10 nM, 100 nM and 1 μM) for the indicated times. Subsequently, the cells were stained with 1 μM Hoechst 33342 and 1 μM propidium iodide and assessed for the loss of viability by automated image acquisition. Images were segmented, cellular debris was excluded and the number of cells with normal nuclear morphology was enumerated. Cells stably expressing CALR-GFP were treated as above. Following the cells were fixed with 3.7% of PFA, stained with 1 μM Hoechst 33342 and assessed by automated image acquisition. Images were segmented, cellular debris was excluded and CALR-GFP granularity (a surrogate marker of CALR exposure) was evaluated in the cytoplasmic region of cells with normal nuclear morphology. Wild type cells were treated as above and then assessed for cytoplasmic quinacrine granularity (after staining with the ATP-sensitive dye quinacrine together with Hoechst 33342) by automated image acquisition, segmentation and analysis. Cells stably expressing HMGB1-GFP were treated as above and then assessed for nuclear HMGB1-GFP fluorescence intensity. The cells were fixed and stained with Hoechst 33342 and images were acquired, segmented and analyzed. […]

[2] = tested on: U2OS cells stably expressing CALR-GFP; assay: CALR-GFP granularity (surrogate marker of CALR exposure); type: cell-based, human; details: lurbinectedin 1 nM to 1 μM, MTX 1 and 3 μM, 4-32 hours, vs untreated controls
Experimental: as §1

U2OS WT cells = assay: Cytoplasmic quinacrine granularity (intracellular ATP, indicator of ATP release); type: cell-based, human; details: lurbinectedin 1 nM to 1 μM, MTX 1 and 3 μM, dose-dependent, decreased over time, vs untreated controls
Experimental: as §1

[3] = tested on: U2OS biosensor cells expressing GFP under the MX1 promoter; assay: Type I IFN response (MX1-GFP biosensor cells treated with supernatant); type: cell-based, human; details: supernatant of treated U2OS cells after 48 hours fresh media; biosensor cells 48 hours; throughout all time points
Experimental: In a systematic screening campaign, the capacity of lurbinectedin to induce immunogenic cell death in cancer cells was assessed in human osteosarcoma U2OS cells stably expressing fluorescent biosensors for the detection of CALR-relocation (as a surrogate marker for CALR surface exposure), HMGB1 release and Type I IFN responses together with U2OS WT cells stained with the ATP-sensitive dye quinacrine. […] The induction of cell death was evaluated based on changes in the nuclear morphology visualized by means of the DNA intercalating dye Hoechst 33342.

[4] = tested on: eukaryotic translation initiation factor 2 alpha (eIF2α); assay: eIF2α phosphorylation by immunofluorescence with phosphoneoepitope-specific antibody; type: cell-based, human; details: U2OS; 10, 50 or 100 nM; 6 hours
Experimental: (§2) Human osteosarcoma U2OS cells were treated with 10, 50 or 100 nM lurbinectedin (Lurbi) for 6 hours. Thapsigargin (Thaps, 3 μM) was used as a positive control. The cells were fixed with 3.7% PFA and DNA was stained with 1 μM Hoechst 33342. Following the phosphorylation of the eukaryotic translation initiation factor 2 alpha (eIF2a) was assessed with phosphoneoepitope-specific antibody and was monitored by means of automated microscopy as an increase in cytoplasmic fluorescence intensity. (a,b) The level of transcription was measured in U2OS cell treated as above with Lurbi. The transcription inhibitor actinomycin D (ActD) was used as a control. The cells were fixed as above and following the colocalization of nucleolin and fibrillarin was assessed as an indicator for transcriptional activity (c,d) Scale bar equals 10 μm and bar charts depict mean values±SD of quadruplicate assessments (*p<0.01; *p<0.001, two-tailed Student's t test).
(§3) In a systematic screening campaign, the capacity of lurbinectedin to induce immunogenic cell death in cancer cells was assessed in human osteosarcoma U2OS cells stably expressing fluorescent biosensors for the detection of CALR-relocation (as a surrogate marker for CALR surface exposure), HMGB1 release and Type I IFN responses together with U2OS WT cells stained with the ATP-sensitive dye quinacrine. […]

[5] = tested on: mRNA transcription in U2OS cells; assay: Transcription level by nucleolin/fibrillarin colocalization; type: cell-based, human; details: 10, 50 or 100 nM, actinomycin D as control
Experimental: as §2, §3

[6] = tested on: Murine fibrosarcoma MCA205 cells; assay: In vitro cell death of MCA205 cells prepared for vaccination; type: cell-based, mouse; details: 1 μM lurbinectedin for 24 h

COc1ccc2[nH]c3c(c2c1)CCN[C@]31CS[C@@H]2c3c(OC(C)=O)c(C)c4c(c3[C@H](COC1=O)N1[C@@H]2[C@H]2c3c(cc(C)c(OC)c3O)C[C@@H]([C@@H]1O)N2C)OCO4 [lurbinectedin]
cellular viability [1]: dose- and time-dependent drop
CALR-granularity [2]: time- and dose-dependent increase
ATP signal (cytoplasmic quinacrine granularity) (U2OS WT cells): significant decrease
de novo GFP signal intensity (type 1 IFN response) [3]: significant increase
phosphorylation of eIF2α [4]: dose-dependent phosphorylation
mRNA transcription (dissociation of nucleolin and fibrillarin) [5]: inhibited mRNA transcription at a level comparable to a known transcription-inhibitor
cell death [6]: approximately 70%
